Reference: PubChem BioAssay (NCI)
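In this assay, cells in 96-well plates receive the compound at five concentrations for 48 hours. Endpoints are linearly interpolated between the surrounding concentrations. Definition used: TGI = concentration required for complete inhibition of growth.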

What follows are compounds tested on NCI-H226 lung (assay: NCI tumour cell line growth inhibition, 48 h).
Work on CCOC(=O)N1CCC2(CC1)CC(=O)N(Nc1ccccc1)C2=O yielded a TGI greater than 100 µM.
O=C1CNN=C(CSc2nc3ccc(I)cc3c(=O)n2Cc2ccccc2)N1 was tested, and the TGI was 42.4 µM.
Compound [N-]=[N+]=NCC1OCC(O)C(OCc2ccccc2)C1OCc1ccccc1 (stereo not given) has a TGI greater than 100 µM.

These compounds were tested on NCI-H23 lung (assay: NCI tumour cell line growth inhibition, 48 h).
In the case of O=C(Cn1nnc(-c2ccccc2)n1)N/N=C/c1cn(Cc2ccc(Cl)cc2Cl)c2ccccc12, the TGI is reported as greater than 100 µM.
Compound CC(C)N(C(=O)C12C3(C(=O)OC(C)(C)C)C4C5(C#N)C3C1(C(=O)OC(C)(C)C)C5C42C(=O)OC(C)(C)C)C(C)C (stereo not given) has a TGI greater than 100 µM.
CCOC(=O)N1CCC2(CC1)CC(=O)N(Nc1ccccc1)C2=O showed a TGI greater than 100 µM.
Compound O=C1CNN=C(CSc2nc3ccc(I)cc3c(=O)n2Cc2ccccc2)N1 has a TGI greater than 100 µM.
[N-]=[N+]=NCC1OCC(O)C(OCc2ccccc2)C1OCc1ccccc1 (stereo not given) was tested, and the TGI was greater than 100 µM.

The compounds below were run on NCI-H460 lung (assay: NCI tumour cell line growth inhibition, 48 h).
O=C(Cn1nnc(-c2ccccc2)n1)N/N=C/c1cn(Cc2ccc(Cl)cc2Cl)c2ccccc12 gave a TGI greater than 100 µM.
CC(C)N(C(=O)C12C3(C(=O)OC(C)(C)C)C4C5(C#N)C3C1(C(=O)OC(C)(C)C)C5C42C(=O)OC(C)(C)C)C(C)C (stereo not given) gave a TGI greater than 100 µM.
Work on CCOC(=O)N1CCC2(CC1)CC(=O)N(Nc1ccccc1)C2=O yielded a TGI greater than 100 µM.
O=C1CNN=C(CSc2nc3ccc(I)cc3c(=O)n2Cc2ccccc2)N1 was tested, and the TGI was greater than 100 µM.
For [N-]=[N+]=NCC1OCC(O)C(OCc2ccccc2)C1OCc1ccccc1 (stereo not given), the TGI was greater than 100 µM.

These compounds were tested on NCI-H522 lung (assay: NCI tumour cell line growth inhibition, 48 h).
O=C(Cn1nnc(-c2ccccc2)n1)N/N=C/c1cn(Cc2ccc(Cl)cc2Cl)c2ccccc12 was tested, and the TGI was greater than 100 µM.
Compound CC(C)N(C(=O)C12C3(C(=O)OC(C)(C)C)C4C5(C#N)C3C1(C(=O)OC(C)(C)C)C5C42C(=O)OC(C)(C)C)C(C)C (stereo not given) has a TGI greater than 100 µM.
O=C1CNN=C(CSc2nc3ccc(I)cc3c(=O)n2Cc2ccccc2)N1 was tested, and the TGI was 68.6 µM.
For [N-]=[N+]=NCC1OCC(O)C(OCc2ccccc2)C1OCc1ccccc1 (stereo not given), the TGI was greater than 100 µM.

Each compound was assayed on NCI/ADR-RES ovarian (assay: NCI tumour cell line growth inhibition, 48 h).
O=C(Cn1nnc(-c2ccccc2)n1)N/N=C/c1cn(Cc2ccc(Cl)cc2Cl)c2ccccc12 showed a TGI greater than 100 µM.
Work on CC(C)N(C(=O)C12C3(C(=O)OC(C)(C)C)C4C5(C#N)C3C1(C(=O)OC(C)(C)C)C5C42C(=O)OC(C)(C)C)C(C)C (stereo not given) yielded a TGI greater than 100 µM.
CCOC(=O)N1CCC2(CC1)CC(=O)N(Nc1ccccc1)C2=O was tested, and the TGI was greater than 100 µM.
For O=C1CNN=C(CSc2nc3ccc(I)cc3c(=O)n2Cc2ccccc2)N1, the TGI was 77.1 µM.
In the case of [N-]=[N+]=NCC1OCC(O)C(OCc2ccccc2)C1OCc1ccccc1 (stereo not given), the TGI is reported as greater than 100 µM.

These compounds were tested on OVCAR-3 ovarian (assay: NCI tumour cell line growth inhibition, 48 h).
O=C(Cn1nnc(-c2ccccc2)n1)N/N=C/c1cn(Cc2ccc(Cl)cc2Cl)c2ccccc12 gave a TGI greater than 100 µM.
CC(C)N(C(=O)C12C3(C(=O)OC(C)(C)C)C4C5(C#N)C3C1(C(=O)OC(C)(C)C)C5C42C(=O)OC(C)(C)C)C(C)C (stereo not given) gave a TGI greater than 100 µM.
CCOC(=O)N1CCC2(CC1)CC(=O)N(Nc1ccccc1)C2=O was tested, and the TGI was greater than 100 µM.
Compound O=C1CNN=C(CSc2nc3ccc(I)cc3c(=O)n2Cc2ccccc2)N1 has a TGI of 45.1 µM.
[N-]=[N+]=NCC1OCC(O)C(OCc2ccccc2)C1OCc1ccccc1 (stereo not given) gave a TGI greater than 100 µM.

These compounds were tested on OVCAR-4 ovarian (assay: NCI tumour cell line growth inhibition, 48 h).
For O=C(Cn1nnc(-c2ccccc2)n1)N/N=C/c1cn(Cc2ccc(Cl)cc2Cl)c2ccccc12, the TGI was greater than 100 µM.
In the case of CC(C)N(C(=O)C12C3(C(=O)OC(C)(C)C)C4C5(C#N)C3C1(C(=O)OC(C)(C)C)C5C42C(=O)OC(C)(C)C)C(C)C (stereo not given), the TGI is reported as greater than 100 µM.
In the case of CCOC(=O)N1CCC2(CC1)CC(=O)N(Nc1ccccc1)C2=O, the TGI is reported as greater than 100 µM.
For O=C1CNN=C(CSc2nc3ccc(I)cc3c(=O)n2Cc2ccccc2)N1, the TGI was greater than 100 µM.
[N-]=[N+]=NCC1OCC(O)C(OCc2ccccc2)C1OCc1ccccc1 (stereo not given) gave a TGI greater than 100 µM.

These compounds were tested on OVCAR-5 ovarian (assay: NCI tumour cell line growth inhibition, 48 h).
For O=C(Cn1nnc(-c2ccccc2)n1)N/N=C/c1cn(Cc2ccc(Cl)cc2Cl)c2ccccc12, the TGI was greater than 100 µM.
For CC(C)N(C(=O)C12C3(C(=O)OC(C)(C)C)C4C5(C#N)C3C1(C(=O)OC(C)(C)C)C5C42C(=O)OC(C)(C)C)C(C)C (stereo not given), the TGI was greater than 100 µM.
CCOC(=O)N1CCC2(CC1)CC(=O)N(Nc1ccccc1)C2=O gave a TGI greater than 100 µM.
O=C1CNN=C(CSc2nc3ccc(I)cc3c(=O)n2Cc2ccccc2)N1 gave a TGI greater than 100 µM.
In the case of [N-]=[N+]=NCC1OCC(O)C(OCc2ccccc2)C1OCc1ccccc1 (stereo not given), the TGI is reported as greater than 100 µM.

Each compound was assayed on OVCAR-8 ovarian (assay: NCI tumour cell line growth inhibition, 48 h).
O=C(Cn1nnc(-c2ccccc2)n1)N/N=C/c1cn(Cc2ccc(Cl)cc2Cl)c2ccccc12 gave a TGI greater than 100 µM.
CC(C)N(C(=O)C12C3(C(=O)OC(C)(C)C)C4C5(C#N)C3C1(C(=O)OC(C)(C)C)C5C42C(=O)OC(C)(C)C)C(C)C (stereo not given) gave a TGI greater than 100 µM.
CCOC(=O)N1CCC2(CC1)CC(=O)N(Nc1ccccc1)C2=O showed a TGI greater than 100 µM.
O=C1CNN=C(CSc2nc3ccc(I)cc3c(=O)n2Cc2ccccc2)N1 gave a TGI of 94.7 µM.
Work on [N-]=[N+]=NCC1OCC(O)C(OCc2ccccc2)C1OCc1ccccc1 (stereo not given) yielded a TGI greater than 100 µM.

Each compound was assayed on PC-3 prostate (assay: NCI tumour cell line growth inhibition, 48 h).
O=C(Cn1nnc(-c2ccccc2)n1)N/N=C/c1cn(Cc2ccc(Cl)cc2Cl)c2ccccc12 gave a TGI greater than 100 µM.
For CC(C)N(C(=O)C12C3(C(=O)OC(C)(C)C)C4C5(C#N)C3C1(C(=O)OC(C)(C)C)C5C42C(=O)OC(C)(C)C)C(C)C (stereo not given), the TGI was greater than 100 µM.
CCOC(=O)N1CCC2(CC1)CC(=O)N(Nc1ccccc1)C2=O was tested, and the TGI was greater than 100 µM.
With O=C1CNN=C(CSc2nc3ccc(I)cc3c(=O)n2Cc2ccccc2)N1 the TGI was 79.6 µM.
In the case of [N-]=[N+]=NCC1OCC(O)C(OCc2ccccc2)C1OCc1ccccc1 (stereo not given), the TGI is reported as greater than 100 µM.

Each compound was assayed on RPMI-8226 leukemia (assay: NCI tumour cell line growth inhibition, 48 h).
O=C(Cn1nnc(-c2ccccc2)n1)N/N=C/c1cn(Cc2ccc(Cl)cc2Cl)c2ccccc12 was tested, and the TGI was greater than 100 µM.
CCOC(=O)N1CCC2(CC1)CC(=O)N(Nc1ccccc1)C2=O was tested, and the TGI was greater than 100 µM.
O=C1CNN=C(CSc2nc3ccc(I)cc3c(=O)n2Cc2ccccc2)N1 showed a TGI of 91.9 µM.
[N-]=[N+]=NCC1OCC(O)C(OCc2ccccc2)C1OCc1ccccc1 (stereo not given) was tested, and the TGI was greater than 100 µM.

What follows are compounds tested on RXF 393 renal (assay: NCI tumour cell line growth inhibition, 48 h).
CC(C)N(C(=O)C12C3(C(=O)OC(C)(C)C)C4C5(C#N)C3C1(C(=O)OC(C)(C)C)C5C42C(=O)OC(C)(C)C)C(C)C (stereo not given) showed a TGI greater than 100 µM.
In the case of CCOC(=O)N1CCC2(CC1)CC(=O)N(Nc1ccccc1)C2=O, the TGI is reported as greater than 100 µM.

These compounds were tested on SF-268 CNS (assay: NCI tumour cell line growth inhibition, 48 h).
In the case of O=C(Cn1nnc(-c2ccccc2)n1)N/N=C/c1cn(Cc2ccc(Cl)cc2Cl)c2ccccc12, the TGI is reported as greater than 100 µM.
In the case of CC(C)N(C(=O)C12C3(C(=O)OC(C)(C)C)C4C5(C#N)C3C1(C(=O)OC(C)(C)C)C5C42C(=O)OC(C)(C)C)C(C)C (stereo not given), the TGI is reported as greater than 100 µM.
CCOC(=O)N1CCC2(CC1)CC(=O)N(Nc1ccccc1)C2=O gave a TGI greater than 100 µM.
Work on O=C1CNN=C(CSc2nc3ccc(I)cc3c(=O)n2Cc2ccccc2)N1 yielded a TGI of 57.7 µM.
Compound [N-]=[N+]=NCC1OCC(O)C(OCc2ccccc2)C1OCc1ccccc1 (stereo not given) has a TGI greater than 100 µM.

These compounds were tested on SF-295 CNS (assay: NCI tumour cell line growth inhibition, 48 h).
In the case of O=C(Cn1nnc(-c2ccccc2)n1)N/N=C/c1cn(Cc2ccc(Cl)cc2Cl)c2ccccc12, the TGI is reported as greater than 100 µM.
CC(C)N(C(=O)C12C3(C(=O)OC(C)(C)C)C4C5(C#N)C3C1(C(=O)OC(C)(C)C)C5C42C(=O)OC(C)(C)C)C(C)C (stereo not given) was tested, and the TGI was greater than 100 µM.
With CCOC(=O)N1CCC2(CC1)CC(=O)N(Nc1ccccc1)C2=O the TGI was greater than 100 µM.
O=C1CNN=C(CSc2nc3ccc(I)cc3c(=O)n2Cc2ccccc2)N1 gave a TGI of 59.7 µM.
With [N-]=[N+]=NCC1OCC(O)C(OCc2ccccc2)C1OCc1ccccc1 (stereo not given) the TGI was greater than 100 µM.

What follows are compounds tested on SF-539 CNS (assay: NCI tumour cell line growth inhibition, 48 h).
O=C(Cn1nnc(-c2ccccc2)n1)N/N=C/c1cn(Cc2ccc(Cl)cc2Cl)c2ccccc12 gave a TGI greater than 100 µM.
CC(C)N(C(=O)C12C3(C(=O)OC(C)(C)C)C4C5(C#N)C3C1(C(=O)OC(C)(C)C)C5C42C(=O)OC(C)(C)C)C(C)C (stereo not given) gave a TGI greater than 100 µM.
Work on CCOC(=O)N1CCC2(CC1)CC(=O)N(Nc1ccccc1)C2=O yielded a TGI greater than 100 µM.
O=C1CNN=C(CSc2nc3ccc(I)cc3c(=O)n2Cc2ccccc2)N1 was tested, and the TGI was 58.3 µM.
[N-]=[N+]=NCC1OCC(O)C(OCc2ccccc2)C1OCc1ccccc1 (stereo not given) was tested, and the TGI was greater than 100 µM.

Each compound was assayed on SK-MEL-2 melanoma (assay: NCI tumour cell line growth inhibition, 48 h).
In the case of O=C(Cn1nnc(-c2ccccc2)n1)N/N=C/c1cn(Cc2ccc(Cl)cc2Cl)c2ccccc12, the TGI is reported as greater than 100 µM.
With CC(C)N(C(=O)C12C3(C(=O)OC(C)(C)C)C4C5(C#N)C3C1(C(=O)OC(C)(C)C)C5C42C(=O)OC(C)(C)C)C(C)C (stereo not given) the TGI was greater than 100 µM.
